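Each compound was tested at five concentrations against cells in 96-well plates for 48 hours. Abbreviation: GI50, concentration required for 50% inhibition of growth.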 Activity calls are given as the source filed them. No stated cut-off is given here; in the data, active = GI50 up to about 1.1 µM and inactive = higher.
Key:
Test in all cases: inhibition of tumour cell growth, NCI panel, 48 h
786-0 = test system: 786-0
A498 = test system: A498
A549 = test system: A549
ACHN = test system: ACHN
BT-549 = test system: BT-549
CAKI-1 = test system: CAKI-1
CCRF-CEM = test system: CCRF-CEM
COLO 205 = test system: COLO 205
DU-145 = test system: DU-145
EKVX = test system: EKVX
HCC 2998 = test system: HCC 2998
HCT-116 = test system: HCT-116
HCT-15 = test system: HCT-15
HL-60 = test system: HL-60
HT-29 = test system: HT-29
Hs-578T = test system: Hs-578T
IGROV-1 = test system: IGROV-1
K562 = test system: K562
KM12 = test system: KM12
LOX IMVI = test system: LOX IMVI
M14 = test system: M14
MCF7 = test system: MCF7
MDA-MB-231 = test system: MDA-MB-231
MDA-MB-435 = test system: MDA-MB-435
MOLT-4 = test system: MOLT-4
Malme-3M = test system: Malme-3M
NCI-H226 = test system: NCI-H226
NCI-H23 = test system: NCI-H23
NCI-H460 = test system: NCI-H460
NCI-H522 = test system: NCI-H522
NCI/ADR-RES = test system: NCI/ADR-RES
OVCAR-3 = test system: OVCAR-3
OVCAR-5 = test system: OVCAR-5
OVCAR-8 = test system: OVCAR-8
PC-3 = test system: PC-3
RPMI-8226 = test system: RPMI-8226
RXF 393 = test system: RXF 393
SF-268 = test system: SF-268
SF-295 = test system: SF-295
SF-539 = test system: SF-539
SK-MEL-28 = test system: SK-MEL-28
SK-MEL-2 = test system: SK-MEL-2
SK-MEL-5 = test system: SK-MEL-5
SK-OV-3 = test system: SK-OV-3
SN12C = test system: SN12C
SNB-19 = test system: SNB-19
SNB-75 = test system: SNB-75
SR = test system: SR
SW-620 = test system: SW-620
TK-10 = test system: TK-10
U-251 = test system: U-251
UACC-257 = test system: UACC-257
UACC-62 = test system: UACC-62
UO-31 = test system: UO-31
HOP-62 = test system: HOP-62
HOP-92 = test system: HOP-92
MDA-N = test system: MDA-N
OVCAR-4 = test system: OVCAR-4
T47D = test system: T47D

Measured: GI50

Oc1nc2cc3nc(O)c(O)nc3cc2nc1O
> 100 µM: HCT-15
inactive: 786-0 > 100 µM | A498 > 100 µM | A549 > 100 µM | ACHN > 100 µM | BT-549 > 100 µM | CAKI-1 > 100 µM | CCRF-CEM > 100 µM | COLO 205 > 100 µM | DU-145 > 100 µM | EKVX > 100 µM | HCC 2998 > 100 µM | HCT-116 > 100 µM | HL-60 > 100 µM | HT-29 > 100 µM | Hs-578T > 100 µM | IGROV-1 > 100 µM | K562 > 100 µM | KM12 > 100 µM | LOX IMVI > 100 µM | M14 > 100 µM | MCF7 > 100 µM | MDA-MB-231 > 100 µM | MDA-MB-435 > 100 µM | MOLT-4 > 100 µM | Malme-3M > 100 µM | NCI-H226 > 100 µM | NCI-H23 > 100 µM | NCI-H460 > 100 µM | NCI-H522 > 100 µM | NCI/ADR-RES > 100 µM | OVCAR-3 > 100 µM | OVCAR-5 > 100 µM | OVCAR-8 > 100 µM | PC-3 > 100 µM | RPMI-8226 > 100 µM | RXF 393 > 100 µM | SF-268 > 100 µM | SF-295 > 100 µM | SF-539 > 100 µM | SK-MEL-28 > 100 µM | SK-MEL-2 > 100 µM | SK-MEL-5 > 100 µM | SK-OV-3 > 100 µM | SN12C > 100 µM | SNB-19 > 100 µM | SNB-75 > 100 µM | SR > 10 µM | SW-620 > 100 µM | TK-10 > 100 µM | U-251 > 100 µM | UACC-257 > 100 µM | UACC-62 > 100 µM | UO-31 > 100 µM

Cc1ccc(/C=C2\CN(C)CC3=C2N=C(S)NC3c2ccc(C)cc2)cc1 (stereo not drawn)
31.8 µM: HCT-15
active: SR < 0.01 µM | TK-10 0.341 µM
inactive: 786-0 21 µM | A498 > 100 µM | A549 37.2 µM | ACHN 40.7 µM | CAKI-1 > 100 µM | CCRF-CEM 30.1 µM | COLO 205 19 µM | DU-145 34.4 µM | EKVX 41.8 µM | HCC 2998 41.5 µM | HCT-116 21.8 µM | HL-60 28.2 µM | HOP-62 40.5 µM | HOP-92 18.2 µM | HT-29 30.8 µM | Hs-578T > 100 µM | IGROV-1 47.2 µM | K562 23.3 µM | KM12 15.4 µM | LOX IMVI 30.3 µM | M14 27.3 µM | MCF7 24.7 µM | MDA-MB-231 34.8 µM | MDA-MB-435 8.63 µM | MDA-N 13.5 µM | Malme-3M 47.3 µM | NCI-H226 27.8 µM | NCI-H23 39 µM | NCI-H460 37.6 µM | NCI-H522 39.5 µM | NCI/ADR-RES 23.8 µM | OVCAR-3 22.1 µM | OVCAR-4 14 µM | OVCAR-5 > 100 µM | OVCAR-8 25.5 µM | PC-3 32.1 µM | RXF 393 31.6 µM | SF-268 44.4 µM | SF-295 36.9 µM | SF-539 39 µM | SK-MEL-28 > 100 µM | SK-MEL-2 51.3 µM | SK-MEL-5 25.7 µM | SK-OV-3 > 100 µM | SN12C 32.7 µM | SNB-19 73.5 µM | SNB-75 10.2 µM | SW-620 61.2 µM | T47D > 100 µM | U-251 42.8 µM | UACC-257 7 µM | UACC-62 36 µM | UO-31 55.1 µM

CSC(=S)Nc1cccc(C)n1
inactive: 786-0 > 100 µM | A498 > 100 µM | A549 > 100 µM | ACHN > 100 µM | CAKI-1 > 100 µM | CCRF-CEM > 100 µM | COLO 205 > 100 µM | DU-145 > 100 µM | EKVX > 100 µM | HCC 2998 > 100 µM | HCT-116 > 100 µM | HL-60 > 100 µM | HOP-62 > 100 µM | HOP-92 > 100 µM | HT-29 > 100 µM | Hs-578T > 100 µM | IGROV-1 > 100 µM | K562 > 100 µM | KM12 > 100 µM | LOX IMVI > 100 µM | M14 > 100 µM | MCF7 > 100 µM | MDA-MB-231 > 100 µM | MDA-MB-435 > 100 µM | MDA-N > 100 µM | MOLT-4 > 100 µM | Malme-3M > 100 µM | NCI-H226 > 100 µM | NCI-H23 > 100 µM | NCI-H460 > 100 µM | NCI-H522 > 100 µM | NCI/ADR-RES > 100 µM | OVCAR-3 52.4 µM | OVCAR-4 > 100 µM | OVCAR-5 > 100 µM | OVCAR-8 > 100 µM | PC-3 > 100 µM | RPMI-8226 > 100 µM | RXF 393 > 100 µM | SF-268 > 100 µM | SF-295 > 100 µM | SF-539 > 100 µM | SK-MEL-28 > 100 µM | SK-MEL-2 > 100 µM | SK-MEL-5 76.6 µM | SK-OV-3 > 100 µM | SN12C > 100 µM | SNB-19 > 100 µM | SNB-75 > 100 µM | SR > 100 µM | SW-620 > 100 µM | T47D > 100 µM | TK-10 > 100 µM | U-251 > 100 µM | UACC-257 > 100 µM | UACC-62 > 100 µM | UO-31 > 100 µM
> 100 µM: HCT-15
